# Patent US10421740B2, “Pesticidally active heterocyclic derivatives with sulphur containing substituents” (SYNGENTA PARTICIPATIONS AG, priority 2016, dated 2019)
# How the values were obtained:
# Type in all cases: in vivo
# [1] = system: Diabrotica balteata (Corn Root Worm); assay: Activity against Diabrotica balteata (corn root worm); details: 96 h, application rate 200 ppm, maize sprouts, L2 larvae, 4 days after infestation, read-out: effect in at least one of the two categories (mortality or growth inhibition)
# Method: Example B2: Activity Against Diabrotica balteata (Corn Root Worm)
# Maize sprouts placed onto an agar layer in 24-well microtiter plates were treated with aqueous test solutions prepared from 10'000 ppm DMSO stock solutions by spraying. After drying, the plates were infested with L2 larvae (6 to 10 per well). The samples were assessed for mortality and growth inhibition in comparison to untreated samples 4 days after infestation.
# [2] = system: Spodoptera littoralis (Egyptian Cotton Leaf Worm); assay: Activity against Spodoptera littoralis (Egyptian cotton leaf worm), uptake via lettuce roots; details: 144 h, test rate 12.5 ppm, lettuce grown on treated agar, eggs, 6 days after infestation, read-out: effect in at least one of the three categories (mortality, anti-feeding, or growth inhibition)
# Excerpt: Example B6: Activity Against Spodoptera littoralis (Egyptian Cotton Leaf Worm)
# Test compounds were applied by pipette from 10'000 ppm DMSO stock solutions into 24-well plates and mixed with agar. Lettuce seeds were placed onto the agar and the multi well plate was closed by another plate which contained also agar. After 7 days the compound was absorbed by the roots and the lettuce grew into the lid plate. The lettuce leaves were then cut off into the lid plate. Spodoptera eggs were pipetted through a plastic stencil onto a humid gel blotting paper and the lid plate was closed with it. The samples were assessed for mortality, anti-feedant effect and growth inhibition in comparison to untreated samples 6 days after infestation.
# [3] = system: Bemisia tabaci (Cotton White Fly); assay: Activity against Bemisia tabaci (cotton white fly): feeding/contact activity; details: foliar, 144 h, application rate 200 ppm, cotton leaf discs, adult white flies, 6 days after incubation
# Method: Example B1: Activity Against Bemisia tabaci (Cotton White Fly): Feeding/Contact Activity
# Cotton leaf discs were placed on agar in 24-well microtiter plates and sprayed with aqueous test solutions prepared from 10'000 ppm DMSO stock solutions. After drying the leaf discs were infested with adult white flies. The samples were checked for mortality 6 days after incubation.
# [4] = system: Myzus persicae (Green Peach Aphid); assay: Activity against Myzus persicae (green peach aphid): systemic activity; details: 144 h, test rate 24 ppm, roots of pea seedlings in test solution, 6 days
# Method: Example B4: Activity Against Myzus persicae (Green Peach Aphid): Systemic Activity
# Roots of pea seedlings infested with an aphid population of mixed ages were placed directly into aqueous test solutions prepared from 10'000 DMSO stock solutions. The samples were assessed for mortality 6 days after placing seedlings into test solutions.
# [5] = system: Spodoptera littoralis (Egyptian Cotton Leaf Worm); assay: Activity against Spodoptera littoralis (Egyptian cotton leaf worm), cotton leaf disc spray; details: foliar, 72 h, application rate 200 ppm, cotton leaf discs, L1 larvae, 3 days after infestation
# Method: Example B8: Activity Against Spodoptera littoralis (Egyptian Cotton Leaf Worm)
# Cotton leaf discs were placed onto agar in 24-well microtiter plates and sprayed with aqueous test solutions prepared from 10'000 ppm DMSO stock solutions. After drying the leaf discs were infested with five L1 larvae. The samples were assessed for mortality, anti-feeding effect, and growth inhibition in comparison to untreated samples 3 days after infestation. Control of Spodoptera littoralis by a test sample is given when at least one of the categories mortality, anti-feedant effect, and growth inhibition is higher than the untreated sample.
# [6] = system: Anopheles stephensi (Indian Malaria Mosquito); assay: Activity against Anopheles stephensi (Indian malaria mosquito); details: 200 ppm in ethanol, dry deposit; adult females; after 48 h and/or 24 h
# Method: Example B10: Activity Against Anopheles stephensi (Indian Malaria Mosquito)
# Test solutions, at an application rate of 200 ppm in ethanol, were applied to 12 well tissue culture plates. Once the deposits were dry, five, two to five day old adult female Anopheles stephensi were added to each well, and sustained with a 10% sucrose solution in a cotton wool plug. Assessment of knockdown was made one hour after introduction, and mortality was assessed at 24 and 48 hours after introduction.
# [7] = system: Myzus persicae (Green Peach Aphid); assay: Activity against Myzus persicae (green peach aphid): feeding/contact activity; details: foliar, 144 h, application rate 200 ppm, sunflower leaf discs, aphid population of mixed ages, 6 days after infestation
# Method: Example B3: Activity Against Myzus persicae (Green Peach Aphid): Feeding/Contact Activity
# Sunflower leaf discs were placed onto agar in a 24-well microtiter plate and sprayed with aqueous test solutions prepared from 10'000 ppm DMSO stock solutions. After drying, the leaf discs were infested with an aphid population of mixed ages. The samples were assessed for mortality 6 days after infestation.
# [8] = system: Plutella xylostella (Diamond Back Moth); assay: Activity against Plutella xylostella (diamond back moth); details: 120 h, application rate 200 ppm, artificial diet, L2 larvae, 5 days after infestation, read-out: effect in at least one of the two categories (mortality or growth inhibition)
# Method: Example B5: Activity Against Plutella xylostella (Diamond Back Moth)
# 24-well microtiter plates with artificial diet were treated with aqueous test solutions prepared from 10'000 ppm DMSO stock solutions by pipetting. After drying, the plates were infested with L2 larvae (10 to 15 per well). The samples were assessed for mortality and growth inhibition in comparison to untreated samples 5 days after infestation.
# [9] = system: Euschistus heros (Neotropical Brown Stink Bug); assay: Activity against Euschistus heros (neotropical brown stink bug); details: 120 h, application rate 200 ppm, soybean leaves, N2 nymphs, 5 days after infestation, read-out: effect in at least one of the two categories (mortality or growth inhibition)
# Method: Example B9: Activity Against Euschistus heros (Neotropical Brown Stink Bug)
# Soybean leaves on agar in 24-well microtiter plates were sprayed with aqueous test solutions prepared from 10'000 ppm DMSO stock solutions. After drying the leaves were infested with N2 nymphs. The samples were assessed for mortality and growth inhibition in comparison to untreated samples 5 days after infestation.
structure (smiles),measurement,setting,value
"CCS(=O)(=O)c1cc2c(cc1-c1nnc(-c3cc(C(F)(F)F)ccn3)n1C)nc(C(F)(F)F)n2C [Compound A2, 6-ethylsulfonyl-1-methyl-5-[4-methyl-5-[4-(trifluoromethyl)-2-pyridyl]-1,2,4-triazol-3-yl]-2-(trifluoromethyl)benzimidazole]",percent effect (mortality or growth inhibition) at 200 ppm,[1],≥ 80%
same,"percent with effect (mortality, anti-feeding or growth inhibition) at 12.5 ppm",[2],≥ 80%
same,mortality at 200 ppm,[3],≥ 80%
same,mortality at 24 ppm,[4],≥ 80%
same,"percent control (mortality, anti-feedant effect or growth inhibition) at 200 ppm",[5],≥ 80%
same,control of Anopheles stephensi,[6],at least 80%
same,mortality at 200 ppm,[7],≥ 80%
same,percent control (mortality or growth inhibition) at 200 ppm,[8],≥ 80%
"CCS(=O)(=O)c1cc2sc(C(F)(F)F)nc2cc1-c1nnc(-c2cc(C(F)(F)F)ccn2)n1C [Compound A8, 6-ethylsulfonyl-5-[4-methyl-5-[4-(trifluoromethyl)-2-pyridyl]-1,2,4-triazol-3-yl]-2-(trifluoromethyl)-1,3-benzothiazole]",percent effect (mortality or growth inhibition) at 200 ppm,[1],≥ 80%
same,"percent with effect (mortality, anti-feeding or growth inhibition) at 12.5 ppm",[2],≥ 80%
same,mortality at 200 ppm,[3],≥ 80%
same,effect (mortality or growth inhibition) at 200 ppm,[9],≥ 80%
same,"percent control (mortality, anti-feedant effect or growth inhibition) at 200 ppm",[5],≥ 80%
same,mortality at 200 ppm,[7],≥ 80%
same,percent control (mortality or growth inhibition) at 200 ppm,[8],≥ 80%
